The values that follow come from article PMC9085681, “Towards Optimized Bioavailability of ^99mTc-Labeled Barbiturates for Non-invasive Imaging of Matrix Metalloproteinase Activity” (Molecular Imaging and Biology, 2021).

The structures appear in SMILES notation. Structures can show the parent of a compound that is named as a salt. Where two headings read alike, the source gives them in different places.

One series has as its target MMP-13 (Homo sapiens, UniProt P45452). As to the kind of experiment: in vitro MMP inhibition assay (fluorogenic substrate, protocol of Huang et al.). Format: biochemical. As to the method:
(§1) In order to evaluate the affinity of the new barbiturate-based compounds towards MMPs, an in vitro inhibition study was performed. The IC50-values were determined for MMP-2, MMP-8, MMP-9, MMP-13, and […] using the protocol from Huang et al. Additionally, the corresponding precursors were also measured and outlined in the SI for comparison.
(§2) To determine the relative potency of new inhibitors in terms of IC50-values the method developed by Huang et al. was applied in an in vitro inhibition study.[14] Compounds of interest were evaluated regarding affinity to MMP-2, -8, -9, -13 and -14 using the artificial MMP-substrate (7-Methoxycoumarine-4-yl)-acetyl-Pro-Leu-Gly-Leu-[3-(2,4-dinitrophenyl)-l-2,3-diaminopropionyl]-Ala-Arg-NH2 (R&D Systems, Minneapolis, USA). The activated form of the corresponding MMPs (2 nM each) were incubated at 37 °C with the barbiturate derivatives in different concentrations (10 pM-1 mM) in TRIS-buffer (50 mM, pH = 7.5), sodium chloride (0.2M), calcium chloride (5 mM), zinc sulfate (20 µM) and Brij® (0.05%) for 30 min. Samples of this mixture (90 µL) were added to the substrate (50 µM, 10 µL) at 37 °C and the increase of fluorescence as a function of time was measured using a TriStar² LB 942 Analyzers (Berthold Technologies, λEx = 330 nm, λEm = 390 nm). The linear change of relative fluorescence after 10 min was plotted as a function of the concentration of the used inbhibitor. The IC50-values were determined by non-linear regression using the Grace 5.1.8 software (Linux).

The next series deals with MMP-14 (Homo sapiens, UniProt P50281). The series is described as above. Type of series: biochemical. How it is done:
as §1, §2

Another series addresses T1, MMP-2 (Homo sapiens, UniProt P08253).
T1 sequence (P08253 110-660): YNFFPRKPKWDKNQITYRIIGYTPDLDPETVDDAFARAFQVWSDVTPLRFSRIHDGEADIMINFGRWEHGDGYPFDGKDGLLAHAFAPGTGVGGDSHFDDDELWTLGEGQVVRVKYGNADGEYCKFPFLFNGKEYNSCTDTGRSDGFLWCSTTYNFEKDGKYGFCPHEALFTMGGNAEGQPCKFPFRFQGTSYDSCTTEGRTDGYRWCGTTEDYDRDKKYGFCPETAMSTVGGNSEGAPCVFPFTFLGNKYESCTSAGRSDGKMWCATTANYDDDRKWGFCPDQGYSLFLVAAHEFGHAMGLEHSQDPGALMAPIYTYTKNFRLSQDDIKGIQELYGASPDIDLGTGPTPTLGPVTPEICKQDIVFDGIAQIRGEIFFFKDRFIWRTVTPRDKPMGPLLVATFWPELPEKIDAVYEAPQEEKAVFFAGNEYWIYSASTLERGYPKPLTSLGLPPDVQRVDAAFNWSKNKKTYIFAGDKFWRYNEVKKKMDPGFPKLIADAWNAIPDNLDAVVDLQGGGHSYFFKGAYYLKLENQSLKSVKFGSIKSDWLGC
Described as above. Format: biochemical. How it is done: as §1, §2

In the next series the target is MMP-8 (Homo sapiens, UniProt P22894). The description is as above. Format: biochemical. As to the method: as §1, §2
MMP-8, sequence (P22894 101-467, species assumed): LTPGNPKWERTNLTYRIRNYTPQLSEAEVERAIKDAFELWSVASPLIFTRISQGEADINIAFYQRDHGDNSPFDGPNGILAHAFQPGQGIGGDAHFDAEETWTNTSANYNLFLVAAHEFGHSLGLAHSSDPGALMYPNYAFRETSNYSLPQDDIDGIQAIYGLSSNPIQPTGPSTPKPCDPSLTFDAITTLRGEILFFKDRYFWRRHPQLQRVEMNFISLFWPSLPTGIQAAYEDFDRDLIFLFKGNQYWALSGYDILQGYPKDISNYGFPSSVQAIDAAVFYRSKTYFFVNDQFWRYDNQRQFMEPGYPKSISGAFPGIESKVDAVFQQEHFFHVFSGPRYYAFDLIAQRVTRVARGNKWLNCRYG
The next series addresses MMP-9 (Homo sapiens, UniProt P14780). Described as above. Format: biochemical. How it is done:
as §1, §2

Series [1] in a line: distribution coefficient (logDexp), 1-octanol / PBS-buffer. Format: physicochemical. The following applies: 1-octanol / PBS-buffer pH = 7.4, 99mTc-labeled compound. How it is done:
The serum stability of all radiolabeled compounds was evaluated by incubation in human and murine serum at 37 °C for up to 120 min and analyzed by HPLC. The distribution coefficients (logDexp) were determined in a two-phase system consisting of 1-octanol and PBS-buffer (pH = 7.4) according to the literature.
Following a method described by Prante et al.[13], the distribution coefficient (logDexp) of the radioactive compound was determined in a two-phase system consisting of 1-octanol and PBS-buffer (pH = 7.4) to determine the lipophilicity. For this purpose, the corresponding ligand (~ 20 kBq) was dissolved in buffer (500 μL). 1-Octanol (500 μL) was added and the mixture was shaken at room temperature for 1 min. To achieve phase separation, the system was centrifuged for 2 min at 3000 rpm. Subsequently a part of the octanol phase (400 μL) was removed and buffer (400 μL) was added. The combined phases were shaken and layers were separated according to the description above. Aliquots of the buffer and octanol layers (3 × 100 μL from every layer) were taken to measure radioactivity in a γ-counter. The measurement provided the activity in counts per minute (cpm), the values were decay corrected. By calculating the quotient of cpm (1-Octanol)cpm (PBS) the logDexp can be determined as logcpm (1-Octanol)cpm (PBS).

Where [2] appears, read: activated MMP 2 nM, 37 °C, 30 min preincubation, non-radioactive compound, read-out: IC50 MMP-13.
Where [3] appears, read: activated MMP 2 nM, 37 °C, 30 min preincubation, non-radioactive compound, read-out: IC50 MMP-14.
Setting [4] is: activated MMP 2 nM, 37 °C, 30 min preincubation, non-radioactive compound, read-out: IC50 MMP-2.
Where [5] appears, read: activated MMP 2 nM, 37 °C, 30 min preincubation, non-radioactive compound, read-out: IC50 MMP-8.
[6] abbreviates: activated MMP 2 nM, 37 °C, 30 min preincubation, non-radioactive compound, read-out: IC50 MMP-9.

MMP-9, sequence (P14780 107-707 limits assumed, species assumed): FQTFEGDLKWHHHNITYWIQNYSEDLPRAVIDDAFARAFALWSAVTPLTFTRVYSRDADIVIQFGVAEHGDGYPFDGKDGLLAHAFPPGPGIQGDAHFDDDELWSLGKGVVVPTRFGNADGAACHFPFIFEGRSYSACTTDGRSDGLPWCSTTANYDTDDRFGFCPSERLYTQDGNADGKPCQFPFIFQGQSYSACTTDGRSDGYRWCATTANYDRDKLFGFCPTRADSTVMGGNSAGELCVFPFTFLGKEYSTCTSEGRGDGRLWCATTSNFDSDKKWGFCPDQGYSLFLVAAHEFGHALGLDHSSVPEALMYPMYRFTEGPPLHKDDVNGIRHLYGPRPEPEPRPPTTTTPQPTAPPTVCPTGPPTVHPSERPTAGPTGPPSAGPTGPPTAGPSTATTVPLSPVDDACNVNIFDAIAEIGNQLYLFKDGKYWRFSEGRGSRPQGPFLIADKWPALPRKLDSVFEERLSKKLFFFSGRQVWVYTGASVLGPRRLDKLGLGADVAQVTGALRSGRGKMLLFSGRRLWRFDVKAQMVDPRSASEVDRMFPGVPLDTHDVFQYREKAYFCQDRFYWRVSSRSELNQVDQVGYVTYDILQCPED

For the compound `N[C@@H](Cc1cn(CCOCCOCCOCCN2CCN(C3(c4ccc(Oc5ccccc5)cc4)C(=O)NC(=O)NC3=O)CC2)nn1)C(=O)[O][Re](=[C]=O)(=[C]=O)=[C]=O` [MEA39, (S)-2-Amino-3-[1-(2-{2-[2-(2-{4-[2,4,6-trioxo-5-(4-phenoxyphenyl)-hexahydropyrimidine-5-yl]piperazine-1-yl}ethoxy)ethoxy]ethoxy}ethyl)-1H-1,2,3-triazol-4-yl]propionic acid-carbonyl rhenium(I)], the IC50 on MMP-13 (setting [2]) was 2 ± 0.3 nM; at MMP-14 (setting [3]), 5.9 ± 0.7 nM; on MMP-2 (setting [4]), 2 ± 0.5 nM; at MMP-8 (setting [5]), 28 ± 7 nM; at MMP-9 (setting [6]), 0.9 ± 0.1 nM. Moreover, the “LogD (compound labeled by [^99mTc])” value in series [1] came to 0.79 ± 0.03.

With `NCCCC[C@H](NCc1cn(CCOCCOCCOCCN2CCN(C3(c4ccc(Oc5ccccc5)cc4)C(=O)NC(=O)NC3=O)CC2)nn1)C(=O)O` [compound 17, {[1-(2-{2-[2-(2-{4-[2,4,6-Trioxo-5-(4-phenoxyphenyl)hexahydropyrimidin-5-yl]piperazin-1-yl}ethoxy)ethoxy]ethoxy}ethyl)-1H-1,2,3-triazol-4-yl]methyl}-L-lysinate], the IC50 turned out to be 58 ± 9 nM at MMP-13; 19 ± 2 nM against MMP-14; 7 ± 3 nM against MMP-2; 18 ± 3 nM against MMP-8; 10 ± 2 nM on MMP-9.

On to `NCCCC[C@H](NCc1cn(CCOCCOCCOCCN2CCN(C3(c4ccc(Oc5ccccc5)cc4)C(=O)NC(=O)NC3=O)CC2)nn1)C(=O)[O-].O=[C]=[Re+](=[C]=O)=[C]=O` [MEA61, {[1-(2-{2-[2-(2-{4-[2,4,6-Trioxo-5-(4-phenoxyphenyl)hexahydropyrimidin-5-yl]piperazin-1-yl}ethoxy)ethoxy]ethoxy}ethyl)-1H-1,2,3-triazol-4-yl]methyl}-L-lysinate tricarbonylrhenium(I)], for which the IC50 on MMP-13 (setting [2]) worked out at 26 ± 0.6 nM; on MMP-14 (setting [3]), 14 ± 0.8 nM; at MMP-2 (setting [4]), 3.6 ± 0.7 nM; on MMP-8 (setting [5]), 5.5 ± 0.4 nM; at MMP-9 (setting [6]), 8 ± 0.5 nM. The “LogD (compound labeled by [^99mTc])” value in series [1] was 0.35 ± 0.23.

With `N[C@@H](Cc1cn(CCOCCOCCOCCN2CCN(C3(c4ccc(Oc5ccccc5)cc4)C(=O)NC(=O)NC3=O)CC2)nn1)C(=O)O` [compound 14, (S)-2-Amino-3-[1-(2-{2-[2-(2-{4-[2,4,6-trioxo-5-(4-phenoxyphenyl)-hexahydropyrimidine-5-yl]piperazine-1-yl}ethoxy)ethoxy]ethoxy}ethyl)-1H-1,2,3-triazol-4-yl]propionic acid potassium salt], the IC50 at MMP-13 (read-out: IC50 MMP-13, activated MMP 2 nM, 37 °C, 30 min preincubation, non-radioactive compound) was found to be 27 ± 9 nM; on MMP-14 (read-out: IC50 MMP-14, activated MMP 2 nM, 37 °C, 30 min preincubation, non-radioactive compound), 1.5 ± 0.4 nM; at MMP-2 (read-out: IC50 MMP-2, activated MMP 2 nM, 37 °C, 30 min preincubation, non-radioactive compound) it was 0.6 ± 0.1 nM; at MMP-8 (read-out: IC50 MMP-8, activated MMP 2 nM, 37 °C, 30 min preincubation, non-radioactive compound), 3.6 ± 2.6 nM; on MMP-9 (read-out: IC50 MMP-9, activated MMP 2 nM, 37 °C, 30 min preincubation, non-radioactive compound), 1.4 ± 0.3 nM.

What is called IC50 is the midpoint of a concentration-inhibition curve.
